In patent US7705043B2, “Substituted aminodicarboxylic acid derivatives having pharmaceutical properties” (Bayer Schering Pharma Aktiengesellschaft, priority 2001, dated 2010):

Test system: arteria saphena rings
Assay: Vasorelaxant effect in vitro (phenylephrine-contracted rings of rabbit arteria saphena)
Format: cell-based
Details: Oryctolagus cuniculus, contraction generated by phenylephrine, concentration reducing height of control contraction by 50%
Experimental: Vasorelaxant Effect in Vitro
Rabbits are anesthetized or killed by intravenous injection of thiopental sodium (about 50 mg/kg) and exsanguinated. The arteria saphena is removed and divided into rings 3 mm wide. The individual rings are in each case mounted on a pair of hooks of triangular shape, open at the ends and made of special wire (Remanium®) having a diameter of 0.3 mm. Under tension, each ring is introduced into a 5 ml organ bath containing carbogen-gassed Krebs-Henseleit solution at 37° C. with the following composition (mM): NaCl: 119; KCl: 4.8; CaCl2×2H2O: 1; MgSO4×7H2O: 1.4; KH2PO4: 1.2; NaHCO3: 25; glucose: 10; bovine serum albumin: 0.001%. The force of contraction is detected with Statham UC2 cells, amplified and digitized via A/D converters (DAS-1802 HC, Keithley Instruments, Munich) and recorded in parallel on chart recorders. Contractions are generated by adding phenylephrine.
After several (generally 4) control cycles, the substance to be investigated is added in each further run in increasing dosage in each case, and the height of the contraction reached under the influence of the test substance is compared with the height of the contraction reached in the last preceding run. The concentration necessary to reduce the height of the control value by 50% (IC50) is calculated from this. The standard application volume is 5 μl. The DMSO content in the bath solution corresponds to 0.1%.

| SMILES | IC50 [nM] |
| --- | --- |
| Cc1sc(C)c(COc2ccc(-c3ccc(Cl)cc3Cl)cc2)c1CCN(CCCCC(=O)O)Cc1ccc(C(=O)O)cc1 [Example 3, 4-({(4-Carboxybutyl)[2-(4-{[(2′,4′-dichloro-1,1′-biphenyl-4-yl)oxy]methyl}-2,5-dimethyl-3-thienyl)ethyl]amino}methyl)benzoic acid] | 2 |
| Cc1sc(C)c(COc2ccc(-c3ccc(C(F)(F)F)cc3)cc2)c1CCN(CCCCC(=O)O)Cc1ccc(C(=O)O)cc1 [Example 4] | 22 |
| COc1ccc(-c2ccc(OCc3c(C)sc(C)c3CCN(CCCCC(=O)O)Cc3ccc(C(=O)O)cc3)cc2)cc1 [Example 5] | 7 |
| Cc1sc(C)c(COc2ccc(-c3ccc(C(C)(C)C)cc3)cc2)c1CCN(CCCCC(=O)O)Cc1ccc(C(=O)O)cc1 [Example 9] | 61 |
| COc1cccc(-c2ccc(OCc3c(C)sc(C)c3CCN(CCCCC(=O)O)Cc3ccc(C(=O)O)cc3)cc2)c1 [Example 10] | 51 |
| COc1ccc(-c2ccc(COc3cc4c(cc3CCN(CCCCC(=O)O)Cc3ccc(C(=O)O)cc3)CCCC4)cc2)cc1 [Example 13, 4-{[(4-Carboxybutyl)(2-{3-[(4′-methoxy-1,1′-biphenyl-4-yl)methoxy]-5,6,7,8-tetrahydro-2-naphthyl}ethyl)amino]methyl}benzoic acid] | 94 |
| Cc1ccc(OCc2ccc(-c3ccc(C(F)(F)F)cc3)cc2)c(CCN(CCCCC(=O)O)Cc2ccc(C(=O)O)cc2)n1 [Example 16] | 125 |

Test system: not given
Assay: not given
Details: not given

| SMILES | melting point [°C] |
| --- | --- |
| COc1ccc(-c2ccc(COc3cc4c(cc3CCN(CCCCC(=O)O)Cc3ccc(C(=O)O)cc3)CCCC4)cc2)cc1 [Example 13, 4-{[(4-Carboxybutyl)(2-{3-[(4′-methoxy-1,1′-biphenyl-4-yl)methoxy]-5,6,7,8-tetrahydro-2-naphthyl}ethyl)amino]methyl}benzoic acid] | > 240 |
